Test results taken from article PMC10408569, “Recruitment of hexahydroquinoline as anticancer scaffold targeting inhibition of wild and mutants EGFR (EGFR^WT, EGFR^T790M, and EGFR^L858R)” (Journal of Enzyme Inhibition and Medicinal Chemistry, 2023).

Assays:
NCI-H23 = experiment: NCI-60 anticancer screening (SRB); format: cell-based; conditions: Homo sapiens, five doses 0.01-100 µM, 48 h
[1] = Cytotoxic effects in vitro on normal lung cells; format: cell-based; conditions: IMR-90 normal lung fibroblast cells; human normal lung fibroblast (IMR-90); read-out: IC50, cytotoxicity towards human normal cells IMR-90
HOP-92 cells [2] = experiment: Annexin V-FITC apoptosis assay; format: cell-based, human; conditions: for total apoptosis, fold more than control / total apoptosis percentage: HOP-92; for early apoptosis ratio / late apoptosis ratio: HOP-92, 10 µM, 24 h; for early apoptosis ratio: control (DMSO) 0.70%; for late apoptosis ratio: control (DMSO) 1.80%; for total apoptosis percentage: control 2.5%
Excerpt: The most important mechanism chemotherapeutics eradicate cancer cells is apoptosis induction[78]^,[79]. Cellular alterations brought on by apoptosis include the translocation of phosphatidylserine (PS) from the inside to the outside via the plasma membrane[80]^,[81]. PS can be detected outside the plasma membrane using a sensitive probe called Annexin V, which can bind to PS[82]^,[83]. […] HOP-92 cells were also overexpressed in NSC lung cancer. Therefore, they were selected to be subjected to apoptosis assay. HOP-92 cells were stained with AV/PI for 24 h at a mixed molar concentration of 10 µM with compounds 10c and 10d (Figure 7(A,B)). […] These findings supported that the cytotoxic effects of compounds 10c and 10d were due to the apoptotic mechanism rather than the necrotic pathway. The results of compounds 10c and 10d compared to the control sample are presented as a bar chart (Figure 7(D)).
[…] Annexin V-FITC apoptosis assay
A protein known as annexin V-fluorescein isothiocyanate (Annexin V-FITC) binds phosphatidyl serine PS, which can be seen by staining. They used Annexin V-FITC and a propidium iodide counterstain (PI). Apoptosis was first induced by incubating cells in 96-microwell plates at a density of […] with the addition of the test substance (100 µL) for 24 hours. Then, 1-5 × 10^5 cells were centrifuged and resuspended in 500 µL of binding buffer. PI (5 µL) and Annexin V - FITC (5 µL) were added, and the mixture was incubated at room temperature for 5 minutes in the dark. An nexin -V -FITC binding was analyzed using A FACS C alibur flow cytometer (BD Biosciences, San Jose, CA). […]

HOP-92 cells [3] = experiment: Cell cycle analysis by flow cytometry; format: cell-based, human; conditions: HOP-92, 10 µM, 24 h; for percentage of cells at the pre-G1 phase: control 3.05%; for cells at G2/M: control 12.98%; for proportion of cells in the S phase: control 31.46%; for percentage of cells in the G0/G1: control 55.38%
Protocol: Antitumor drugs can cause cell cycle arrest and death via activating signalling pathways[85]^,[86]. Cell growth in various cell cycle phases is measured by flow cytometry[87]^,[88]. […] We have treated HOP-92 cells with 10 µM of compounds 10c and 10d to incubate for 24 h. […] According to these observations, Compounds 10c and 10d induce apoptosis in NSC lung cancer, HOP-92, cells via cell cycle arrest at the pre-G1 phase as well as the G2/M phase (Figure 8(D)). […]
[…] Cellular mechanistic analysis
The examination of the cell cycle was done using flow cytometry. The test compound was applied to HOP-92 cells before they were cultured for 24 hours at 37 °C, 5% CO 2. After gathering and centrifuging the cell pellets, they were fixed in 70% (v/v) ethanol unde r the ice for 15 minutes. Pellets were once more collected and then incubated in a solution of 50 µg/mL propidium iodide (PI) and […]
0.1 mg/mL RNAse. […]

Row | Structure (SMILES) | GI50 (NCI-H23) [µM] | IC50 [1] [µM] | total apoptosis, fold more than control (HOP-92 cells [2]) | early apoptosis ratio (HOP-92 cells [2]) [%] | late apoptosis ratio (HOP-92 cells [2]) [%] | total apoptosis percentage (HOP-92 cells [2]) [%] | percentage of cells at the pre-G1 phase (HOP-92 cells [3]) [%] | cells at G2/M (HOP-92 cells [3]) [%] | proportion of cells in the S phase (HOP-92 cells [3]) [%] | percentage of cells in the G0/G1 (HOP-92 cells [3]) [%]
1 | CCOC(=O)C1=C(N)N(c2ccccc2)C2=C(C(=O)CC(C)(C)C2)C1c1ccc(Cl)cc1Cl (racemic) [10c, (±)-Ethyl 2-amino-4–(2,4-dichlorophenyl)-7,7-dimethyl-5-oxo-1-phenyl-1,4,5,6,7,8-hexahydroquinoline-3-carboxylate] | 2.51 | 62.2 ± 3.14 | approximately 10 fold | 8.74 | 15.44 | 24.18 | 25.82 | 34.07 | 20.18 | 45.75
2 | CCOC(=O)C1=C(N)N(c2ccc(Cl)cc2)C2=C(C(=O)CC(C)(C)C2)C1c1ccc(Cl)cc1Cl (racemic) [10d, (±)-Ethyl 2-amino-1–(4-chorophenyl)-4–(2,4-dichlorophenyl)-7,7-dimethyl-5-oxo-1-phenyl-1,4,5,6,7,8-hexahydroquinoline-3-carboxylate] |  | 55.5 ± 2.57 | ~8 fold | 7.68 | 12.15 | 19.83 | 21.55 | 49.21 | 25.42 | 25.37
